Experimental data reported in patent publication US20260285853A1, “COMPOUNDS AND METHODS FOR MODULATING SPLICING” (REMIX THERAPEUTICS INC., priority 2023, published 2026).

What was measured:
Type in all cases: cell-based
MYB mRNA [1] = assay: Splicing RT-qPCR assay, canonical (CJ) and alternative (AJ) junction mRNA, K562 cells; settings: Homo sapiens, K562.3 cells, 24 hours; for AC50: read-out: MYB AJ (AC50, increase in AJ mRNA); for IC50: read-out: MYB CJ (IC50, decrease in CJ mRNA)
Method in brief: (§1)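 K562 cells were treated for 24 h at 37 °C with an 11-point 3-fold dilution series (top 10 uM final, DMSO ≤0.25%), then lysed for one-step RT-qPCR of canonical and alternative junctions. ΔΔCt was taken against GAPDH or GUSB and DMSO, converted to RQ by 2^(−ΔΔCt), then to % response.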

HTT mRNA [2] = assay: as above; settings: Homo sapiens, K562.3 cells, 24 hours; for AC50: read-out: HTT AJ (AC50, increase in AJ mRNA); for IC50: read-out: HTT CJ (IC50, decrease in CJ mRNA)
Method in brief: as §1

HTT mRNA [3] = assay: Splicing RT-qPCR assay (THP), Table 2A
MYB mRNA [4] = assay: Splicing RT-qPCR assay (THP), Table 2A
[5] = Table 2A (THP), AJ mRNA increase, read-out: HTT AJ (increase in alternative junction mRNA, AC50)
[6] = Table 2A (THP), CJ mRNA decrease, read-out: HTT CJ (decrease in canonical junction mRNA, IC50)
[7] = Table 2A (THP), AJ mRNA increase, read-out: MYB AJ (increase in alternative junction mRNA, AC50)
[8] = Table 2A (THP), CJ mRNA decrease, read-out: MYB CJ (decrease in canonical junction mRNA, IC50)

Row | Compound | IC50 (MYB mRNA [1]) | IC50 (HTT mRNA [2]) | IC50 (HTT mRNA [3]; [6]) | IC50 (MYB mRNA [4]; [8]) | IC50 (HTT mRNA [3]; Table 2A, THP, HTT canonical junction (CJ) mRNA, read-out: HTT CJ (IC50, decrease in canonical junction mRNA)) | IC50 (MYB mRNA [4]; Table 2A, THP, MYB canonical junction (CJ) mRNA, read-out: MYB CJ (IC50, decrease in canonical junction mRNA)) | AC50 (MYB mRNA [1]) | AC50 (HTT mRNA [2]) | AC50 (HTT mRNA [3]; [5]) | AC50 (MYB mRNA [4]; [7]) | AC50 (HTT mRNA [3]; Table 2A, THP, HTT alternative junction (AJ) mRNA, read-out: HTT AJ (AC50, increase in alternative junction mRNA)) | AC50 (MYB mRNA [4]; Table 2A, THP, MYB alternative junction (AJ) mRNA, read-out: MYB AJ (AC50, increase in alternative junction mRNA))
1 | CN[C@@H]1C[C@@H](C)N(c2ccc(C(=O)Nc3cc(F)c4nc(C)cn4c3)c3nn(C)cc23)C1 [Compound 129, N-(8-fluoro-2-methyl-imidazo[1,2-a]pyridin-6-yl)-2-methyl-4-[(2R,4R)-2-methyl-4-(methylamino)pyrrol-idin-1-yl]indazole-7-carboxamide] | 100 to 1000 nM | 1000 to 10000 nM | 1000 to 10000 nM | < 100 nM |  |  | 100 to 1000 nM | 1000 to 10000 nM | 1000 to 10000 nM | 100 to 1000 nM |  | 
2 | Cn1cc2cc(NC(=O)c3c(O)cc(N4CC[C@@H](NC5CC5)C4)c4cn(C)nc34)cc(F)c2n1 [Compound 291, 4-[(3R)-3-(cyclopropylamino)pyrrolidin-1-yl]-N-(7-fluoro-2-methyl-indazol-5-yl)-6-hydroxy-2-methyl-indazole-7-carboxamide] | < 100 nM | 1000 to 10000 nM | > 10000 nM | < 100 nM |  |  | < 100 nM | 1000 to 10000 nM | 1000 to 10000 nM | < 100 nM |  | 
3 | COc1cc(N2CCNCC2)c2cn(C)nc2c1C(=O)Nc1cc(F)c2nc(C)cn2c1 [Compound 250, N-(8-fluoro-2-methyl-imidazo[1,2-a]pyridin-6-yl)-6-methoxy-2-methyl-4-piperazin-1-yl-indazole-7-carboxamide] | > 10000 nM | > 10000 nM | > 10000 nM | 1000 to 10000 nM |  |  | > 10000 nM | > 10000 nM | > 10000 nM | 1000 to 10000 nM |  | 
4 | CO[C@H]1C[C@@H](N[C@H]2CCN(c3ccc(C(=O)Nc4cc(F)c5nc(C)cn5c4)c4nn(C)cc34)C2)C1 [Compound 277, N-(8-fluoro-2-methylimidazo[1,2-a]pyridin-6-yl)-4-((S)-3-(((1s,3R)-3-methoxy-cyclobutyl)amino)pyrrolidin-1-yl)-2-methyl-2H-indazole-7-carboxamide] | 100 to 1000 nM | 1000 to 10000 nM | 1000 to 10000 nM | 100 to 1000 nM |  |  | 100 to 1000 nM | < 100 nM | 1000 to 10000 nM | 100 to 1000 nM |  | 
5 | Cc1cn2cc(NS(=O)(=O)c3ccc(N4C[C@@H](C)N[C@@H](C)C4)c4cn(C)nc34)cc(F)c2n1 [Compound 279] | > 10000 nM | > 10000 nM | > 10000 nM | > 10000 nM |  |  | > 10000 nM | > 10000 nM | > 10000 nM | > 10000 nM |  | 
6 | CNC1(C)CCN(c2cc(F)c(C(=O)Nc3cc(F)c4nc(C)cn4c3)c3nn(C)cc23)CC1 [Compound 179, 6-fluoro-N-(8-fluoro-2-methyl-imidazo[1,2-a]pyridin-6-yl)-2-methyl-4-[4-methyl-4-(methylamino)-1-piperidyl]indazole-7-carboxamide] | < 100 nM | < 100 nM | < 100 nM | < 100 nM |  |  | < 100 nM | < 100 nM | < 100 nM | < 100 nM |  | 
7 | CNC1(C)CCN(c2ccc(C(=O)Nc3cn4cc(C)nc4c(OC)n3)c3nn(C)cc23)CC1 [Compound 197, N-(8-methoxy-2-methylimidazo[1,2-a]pyrazin-6-yl)-2-methyl-4-(4-methyl-4-(methylamino)piperidin-1-yl)-2H-indazole-7-carboxamide] | < 100 nM | < 100 nM | < 100 nM | < 100 nM |  |  | < 100 nM | < 100 nM | < 100 nM | < 100 nM |  | 

Further lines, with some results ahead:

Row | IC50 (MYB mRNA [1]) | IC50 (HTT mRNA [2]) | IC50 (HTT mRNA [3]; [6]) | IC50 (MYB mRNA [4]; [8]) | IC50 (HTT mRNA [3]; Table 2A, THP, HTT canonical junction (CJ) mRNA, read-out: HTT CJ (IC50, decrease in canonical junction mRNA)) | IC50 (MYB mRNA [4]; Table 2A, THP, MYB canonical junction (CJ) mRNA, read-out: MYB CJ (IC50, decrease in canonical junction mRNA)) | Compound | AC50 (MYB mRNA [1]) | AC50 (HTT mRNA [2]) | AC50 (HTT mRNA [3]; [5]) | AC50 (MYB mRNA [4]; [7]) | AC50 (HTT mRNA [3]; Table 2A, THP, HTT alternative junction (AJ) mRNA, read-out: HTT AJ (AC50, increase in alternative junction mRNA)) | AC50 (MYB mRNA [4]; Table 2A, THP, MYB alternative junction (AJ) mRNA, read-out: MYB AJ (AC50, increase in alternative junction mRNA))
8 | < 100 nM | > 10000 nM | > 10000 nM | < 100 nM |  |  | COCCN[C@@H]1CCN(c2cc(O)c(C(=O)Nc3cc(F)c4nc(C)cn4c3)c3nn(C)cc23)C1 [Compound 285, N-(8-fluoro-2-methyl-imidazo[1,2-a]pyridin-6-yl)-6-hydroxy-4-[(3R)-3-(2-methoxyethylamino)pyrrolidin-1-yl]-2-methyl-indazole-7-carboxamide] | < 100 nM | > 10000 nM | > 10000 nM | < 100 nM |  | 
9 | > 10000 nM | > 10000 nM |  |  | > 10000 nM | 1000 to 10000 nM | COc1c(NC(=O)c2ncc(N3CCNCC3)c3cn[nH]c23)cn2cc(C)nc2c1F [Compound 606, N-(8-fluoro-7-methoxy-2-methyl-imidazo[1,2-a]pyridin-6-yl)-4-piperazin-1-yl-1H-pyrazolo[3,4-c]pyridine-7-carboxamide] | > 10000 nM | > 10000 nM |  |  | > 10000 nM | 1000 to 10000 nM
10 | < 100 nM | 100 to 1000 nM | < 100 nM | < 100 nM |  |  | COc1nc2c(C(=O)Nc3cc(F)c4nc(C)cn4c3)ccc(N3CCC(N)CC3)c2s1 [Compound 208, 7-(4-aminopiperidin-1-yl)-N-(8-fluoro-2-methylimidazo[1,2-a]pyridin-6-yl)-2-methoxybenzo[d]thiazole-4-carboxamide] | < 100 nM | 100 to 1000 nM | 100 to 1000 nM | < 100 nM |  | 
11 | < 100 nM | 100 to 1000 nM | 100 to 1000 nM | < 100 nM |  |  | CCNC1CCN(c2ccc(C(=O)Nc3cn4cc(C)nc4c(OC)n3)c3nn(C)cc23)CC1 [Compound 206, 4-[4-(ethylamino)-1-piperidyl]-N-(8-methoxy-2-methyl-imidazo[1,2-a]pyrazin-6-yl)-2-methyl-indazole-7-carboxamide] | < 100 nM | 100 to 1000 nM | 100 to 1000 nM | < 100 nM |  | 
12 | > 10000 nM | > 10000 nM | > 10000 nM | > 10000 nM |  |  | Cc1cn2cc(NC(=O)c3ccc(N4CCNCC4=O)c4cn(C)nc34)cc(F)c2n1 [Compound 251, N-(8-fluoro-2-methylimidazo[1,2-a]-pyridin-6-yl)-2-methyl-4-(2-oxopiperazin-1-yl)-2H-indazole-7-carboxamide 2,2,2-trifluoroacetate] | > 10000 nM | > 10000 nM | > 10000 nM | > 10000 nM |  | 
13 | < 100 nM | 1000 to 10000 nM | 1000 to 10000 nM | < 100 nM |  |  | CCNC1CCN(c2ccc(C(=O)Nc3cc(F)c4nn(C)cc4c3)c3nn(C)cc23)CC1 [Compound 182, 4-(4-(ethylamino)piperidin-1-yl)-N-(7-fluoro-2-methyl-2H-indazol-5-yl)-2-methyl-2H-indazole-7-carboxamide] | 100 to 1000 nM | 1000 to 10000 nM | 1000 to 10000 nM | < 100 nM |  | 
14 | 1000 to 10000 nM | > 10000 nM | > 10000 nM | > 10000 nM |  |  | Cc1cn2cc(NC(=O)c3ccc(N4CCNC(C(F)(F)F)C4)c4cn(C)nc34)cc(F)c2n1 (stereo not drawn) [Compound 248, N-(8-fluoro-2-methyl-imidazo[1,2-a]-pyridin-6-yl)-2-methyl-4-[3-(trifluoro-methyl)piperazin-1-yl]indazole-7-carboxamide] | 1000 to 10000 nM | > 10000 nM | > 10000 nM | 1000 to 10000 nM |  | 
15 | 1000 to 10000 nM | 1000 to 10000 nM | 1000 to 10000 nM | 1000 to 10000 nM |  |  | Cc1cn2nc(C(=O)Nc3ccc(N4C[C@@H](C)N[C@@H](C)C4)c4cc[nH]c34)cc(C)c2n1 [Compound 237, N-(4-[(3R,5S)-3,5-dimethylpiperazin-1-yl]-1H-indol-7-yl)-2,8-dimethylimidazo[1,2-b]pyridazine-6-carboxamide] | 1000 to 10000 nM | 1000 to 10000 nM | 1000 to 10000 nM | 1000 to 10000 nM |  | 
16 | > 10000 nM | > 10000 nM | > 10000 nM | > 10000 nM |  |  | CCNC1CCN(c2ccc(C(=O)Nc3cc4cn(C)nc4cc3O)c3[nH]ccc23)CC1 [Compound 190, 4-[4-(ethylamino)-1-piperidyl]-N-(6-hydroxy-2-methyl-indazol-5-yl)-1H-indole-7-carboxamide] | > 10000 nM | > 10000 nM | > 10000 nM | > 10000 nM |  | 
17 | < 100 nM | 1000 to 10000 nM | 1000 to 10000 nM | < 100 nM |  |  | CCNC1CCN(c2ccc(C(=O)Nc3cc(F)c4nc(CF)cn4c3)c3nn(C)cc23)CC1 [Compound 202, 4-[4-(ethylamino)-1-piperidyl]-N-[8-fluoro-2-(fluoromethyl)imidazo[1,2-a]pyridin-6-yl]-2-methyl-indazole-7-carboxamide] | 100 to 1000 nM | 1000 to 10000 nM | 100 to 1000 nM | < 100 nM |  | 
18 | < 100 nM | 100 to 1000 nM | < 100 nM | < 100 nM |  |  | Cc1cn2cc(NC(=O)c3ccc(N4CCC(NC5CC5)CC4)n4cc(C)nc34)cc(F)c2n1 [Compound 210, 5-(4-(cyclopropylamino)piperidin-1-yl)-N-(8-fluoro-2-methylimidazo[1,2-a]pyridin-6-yl)-2-methylimidazo[1,2-a]-pyridine-8-carboxamide] | 100 to 1000 nM | 100 to 1000 nM | 100 to 1000 nM | < 100 nM |  | 
